Measurements as given in publication PMC10879502, “Linking ATP and allosteric sites to achieve superadditive binding with bivalent EGFR kinase inhibitors” (Communications Chemistry, 2024).

Experiments:
[1] = target: T1, EGFR WT, cytoplasmic domain (669–1210) (Homo sapiens, UniProt P00533); experiment: Time-dependent kinase inhibition assay (Sox-based substrate); assay type: biochemical; details: enzyme 2.0 nM, 1 mM ATP
T1 construct: EGFR WT, cytoplasmic domain (669–1210), GST-tagged, Carna; purchased Carna 08-115
Experimental: (§1) Biochemical assays were performed with commercially available EGFR WT, cytoplasmic domain (669–1210), GST-tagged, Carna (Cat#/Lot#: 08-115/21CBS-0127H), EGFR [L858R], cytoplasmic domain (668-end), GST-tagged, SignalChem (Cat#/Lot#: E10-122BG/D2411-4), EGFR [T790M/L858R] cytoplasmic domain (669–1210), GST-tagged, Carna (Cat#/Lot#: 08-510/12CBS-0765M). […] BSA was not included in this experiment to prevent interference with irreversible inhibitor characterization via off-target binding. All reactions were run for 240 min at 30 °C. Time-dependent fluorescence from the Sox-based substrate was monitored in PerkinElmer ProxiPlate-384 Plus, white shallow well microplates (Cat. #6008280) Biotek Synergy Neo 2 microplate reader with excitation (360 nm) and emission (485 nm) wavelengths. 4 was dosed between 0 and 10 µM in 24-point curves with 1.5-fold dilutions. Fluorescence, determined with identical reactions but lacking purified enzyme or crude cell lysate was subtracted from the total fluorescence signal for each time point, with both determined in duplicate, to obtain corrected relative fluorescence units (RFU). Corrected RFU values then were plotted vs. time and the reaction velocity for the first ~40 min (initial reaction rates) was determined from the slope using GraphPad Prism (La Jolla, CA) with units of RFU/min.

[2] = target: T2, EGFR [L858R], cytoplasmic domain (668-end) (Homo sapiens, UniProt P00533, L858R); experiment: as above; assay type: biochemical; details: LR, enzyme 1.0 nM, 1 mM ATP
T2 construct: EGFR [L858R], cytoplasmic domain (668-end), GST-tagged, SignalChem; purchased SignalChem E10-122BG
Experimental: as §1

[3] = target: T3, EGFR [T790M/L858R] cytoplasmic domain (669–1210) (Homo sapiens, UniProt P00533, L858R/T790M); experiment: as above; assay type: biochemical; details: LRTM, enzyme 2.0 nM, 1 mM ATP
T3 construct: EGFR [T790M/L858R] cytoplasmic domain (669–1210), GST-tagged, Carna; purchased Carna 08-510
Experimental: as §1

[4] = target: T4, ABL1(H396P)-nonphosphorylated (Homo sapiens, UniProt P00519, H396P); experiment: KINOMEscan; assay type: binding; details: 1 μM
T4 construct: purchased Eurofins DiscoverX Corporation

[5] = target: T5, ABL1(T315I)-nonphosphorylated (Homo sapiens, UniProt P00519, T315I); experiment: KINOMEscan; assay type: binding; details: 1 μM
T5 construct: purchased Eurofins DiscoverX Corporation

[6] = target: T6, ABL1-phosphorylated (Homo sapiens, UniProt P00519); experiment: KINOMEscan; assay type: binding; details: 1 μM
T6 construct: purchased Eurofins DiscoverX Corporation

[7] = target: T7, ACVR1 (Homo sapiens, UniProt Q04771); experiment: KINOMEscan; assay type: binding; details: 1 μM
T7 construct: purchased Eurofins DiscoverX Corporation

[8] = target: ACVR1B (Homo sapiens, UniProt P36896); experiment: KINOMEscan; assay type: binding; details: 1 μM
ACVR1B, sequence (P36896 24-505): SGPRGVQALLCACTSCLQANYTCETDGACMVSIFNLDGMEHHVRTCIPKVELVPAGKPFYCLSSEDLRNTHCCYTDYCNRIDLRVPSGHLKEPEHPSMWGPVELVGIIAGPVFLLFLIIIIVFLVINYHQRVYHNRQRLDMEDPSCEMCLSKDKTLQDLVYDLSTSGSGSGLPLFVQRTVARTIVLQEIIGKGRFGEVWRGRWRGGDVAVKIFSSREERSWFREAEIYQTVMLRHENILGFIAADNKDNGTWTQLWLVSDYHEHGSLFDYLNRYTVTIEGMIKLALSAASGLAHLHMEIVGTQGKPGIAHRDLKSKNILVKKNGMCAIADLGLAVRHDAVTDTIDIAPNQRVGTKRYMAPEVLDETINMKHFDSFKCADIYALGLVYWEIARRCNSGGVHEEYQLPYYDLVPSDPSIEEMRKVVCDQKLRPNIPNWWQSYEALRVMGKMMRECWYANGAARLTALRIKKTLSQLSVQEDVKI

[9] = target: AKT2 (Homo sapiens, UniProt P31751); experiment: KINOMEscan; assay type: binding; details: 1 μM
AKT2, sequence (P31751 whole entry): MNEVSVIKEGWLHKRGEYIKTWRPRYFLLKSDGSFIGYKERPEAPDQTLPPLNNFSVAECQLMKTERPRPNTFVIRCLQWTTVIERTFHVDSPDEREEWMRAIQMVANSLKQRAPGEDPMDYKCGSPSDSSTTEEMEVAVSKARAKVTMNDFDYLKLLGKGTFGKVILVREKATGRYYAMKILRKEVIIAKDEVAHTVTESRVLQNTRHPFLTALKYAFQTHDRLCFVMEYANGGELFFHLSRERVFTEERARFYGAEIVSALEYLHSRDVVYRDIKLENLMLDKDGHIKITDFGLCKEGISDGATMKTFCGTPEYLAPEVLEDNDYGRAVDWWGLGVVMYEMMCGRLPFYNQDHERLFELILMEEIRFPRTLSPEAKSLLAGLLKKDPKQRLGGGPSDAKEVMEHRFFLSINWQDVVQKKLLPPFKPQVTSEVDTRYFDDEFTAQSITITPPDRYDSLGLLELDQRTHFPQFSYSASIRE

[10] = target: T8, CAMK2G (Homo sapiens, UniProt Q13555); experiment: KINOMEscan; assay type: binding; details: 1 μM
T8 construct: purchased Eurofins DiscoverX Corporation (KINOMEscan)

[11] = target: CDK9 (Homo sapiens, UniProt P50750); experiment: KINOMEscan; assay type: binding; details: 1 μM
CDK9, sequence (P50750 whole entry): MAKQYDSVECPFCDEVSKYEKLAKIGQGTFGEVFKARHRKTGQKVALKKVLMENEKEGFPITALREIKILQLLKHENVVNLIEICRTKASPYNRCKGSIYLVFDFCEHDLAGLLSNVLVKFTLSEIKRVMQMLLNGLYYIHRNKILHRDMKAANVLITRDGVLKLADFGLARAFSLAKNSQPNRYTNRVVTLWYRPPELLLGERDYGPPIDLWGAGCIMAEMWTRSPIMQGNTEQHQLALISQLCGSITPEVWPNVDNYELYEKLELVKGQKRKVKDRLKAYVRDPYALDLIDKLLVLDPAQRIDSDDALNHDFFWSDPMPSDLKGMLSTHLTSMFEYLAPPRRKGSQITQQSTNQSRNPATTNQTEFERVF

[12] = target: EGFR(L861Q) (Homo sapiens, UniProt P00533, L861Q); experiment: KINOMEscan; assay type: binding; details: 1 μM
[13] = target: ERK1 (Homo sapiens, UniProt P27361); experiment: KINOMEscan; assay type: binding; details: 1 μM
ERK1, sequence (P27361 whole entry): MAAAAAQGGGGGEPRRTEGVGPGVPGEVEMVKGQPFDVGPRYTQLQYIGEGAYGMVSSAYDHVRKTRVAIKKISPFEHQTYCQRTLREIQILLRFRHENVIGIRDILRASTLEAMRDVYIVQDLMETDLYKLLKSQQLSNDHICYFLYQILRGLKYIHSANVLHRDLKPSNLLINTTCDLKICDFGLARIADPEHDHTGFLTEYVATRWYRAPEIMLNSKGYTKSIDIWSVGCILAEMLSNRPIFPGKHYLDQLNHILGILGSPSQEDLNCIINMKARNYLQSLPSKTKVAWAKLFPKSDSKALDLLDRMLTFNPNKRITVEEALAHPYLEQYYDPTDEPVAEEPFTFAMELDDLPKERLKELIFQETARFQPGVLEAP

[14] = target: FGFR4 (Homo sapiens, UniProt P22455); experiment: KINOMEscan; assay type: binding; details: 1 μM
[15] = target: T9, ITK (Homo sapiens, UniProt Q08881); experiment: KINOMEscan; assay type: binding; details: 1 μM
T9 construct: purchased Eurofins DiscoverX (KINOMEscan)
T9 sequence (Q08881 whole entry): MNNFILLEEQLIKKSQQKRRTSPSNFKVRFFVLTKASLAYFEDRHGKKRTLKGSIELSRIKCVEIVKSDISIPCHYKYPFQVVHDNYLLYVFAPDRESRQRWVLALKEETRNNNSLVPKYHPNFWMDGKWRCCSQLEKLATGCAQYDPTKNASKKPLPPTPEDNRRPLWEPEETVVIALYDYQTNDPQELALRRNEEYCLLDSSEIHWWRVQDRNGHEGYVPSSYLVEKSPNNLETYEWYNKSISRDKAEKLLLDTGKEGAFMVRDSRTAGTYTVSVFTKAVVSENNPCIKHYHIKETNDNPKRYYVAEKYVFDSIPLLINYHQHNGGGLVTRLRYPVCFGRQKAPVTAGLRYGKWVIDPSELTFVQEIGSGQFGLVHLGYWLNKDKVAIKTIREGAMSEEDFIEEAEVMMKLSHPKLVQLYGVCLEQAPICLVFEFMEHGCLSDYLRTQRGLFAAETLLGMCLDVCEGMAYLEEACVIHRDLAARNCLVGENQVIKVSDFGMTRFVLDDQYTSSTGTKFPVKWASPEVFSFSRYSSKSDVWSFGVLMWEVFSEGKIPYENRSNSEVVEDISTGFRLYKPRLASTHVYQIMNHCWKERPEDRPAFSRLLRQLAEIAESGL

[16] = target: T10, LYN (Homo sapiens, UniProt P07948); experiment: KINOMEscan; assay type: binding; details: 1 μM
T10 construct: purchased Eurofins DiscoverX Corporation

[17] = target: T11, MAP3K2 (Homo sapiens, UniProt Q9Y2U5); experiment: KINOMEscan; assay type: binding; details: 1 μM
T11 construct: purchased Eurofins DiscoverX Corporation
T11 sequence (Q9Y2U5 whole entry): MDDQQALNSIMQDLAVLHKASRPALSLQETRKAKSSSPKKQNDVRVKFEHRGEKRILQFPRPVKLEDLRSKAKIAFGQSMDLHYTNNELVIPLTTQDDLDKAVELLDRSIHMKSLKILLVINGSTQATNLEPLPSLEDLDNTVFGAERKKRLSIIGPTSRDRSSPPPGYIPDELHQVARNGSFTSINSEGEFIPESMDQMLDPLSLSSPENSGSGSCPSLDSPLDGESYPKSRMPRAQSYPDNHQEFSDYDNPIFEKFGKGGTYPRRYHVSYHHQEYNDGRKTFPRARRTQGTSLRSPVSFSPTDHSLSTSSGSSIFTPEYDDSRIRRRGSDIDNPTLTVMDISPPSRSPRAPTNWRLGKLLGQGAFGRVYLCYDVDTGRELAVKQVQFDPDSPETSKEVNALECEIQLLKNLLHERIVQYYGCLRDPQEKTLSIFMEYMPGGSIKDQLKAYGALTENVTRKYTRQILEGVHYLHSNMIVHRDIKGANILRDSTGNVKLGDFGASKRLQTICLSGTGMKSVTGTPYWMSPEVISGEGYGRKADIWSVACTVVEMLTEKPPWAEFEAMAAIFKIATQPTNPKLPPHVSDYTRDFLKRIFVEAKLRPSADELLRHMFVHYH

[18] = target: T12, MEK2 (Homo sapiens, UniProt P36507); experiment: KINOMEscan; assay type: binding; details: 1 μM
T12 construct: purchased Eurofins DiscoverX Corporation

[19] = target: T13, MET(Y1235D) (Homo sapiens, UniProt P08581, Y1235D); experiment: KINOMEscan; assay type: binding; details: 1 μM
T13 construct: purchased Eurofins DiscoverX Corporation

[20] = target: T14, MKK7 (Homo sapiens, UniProt O14733); experiment: KINOMEscan; assay type: binding; details: 1 μM
T14 construct: purchased Eurofins DiscoverX Corporation

[21] = target: T15, MYLK (Homo sapiens, UniProt Q15746); experiment: KINOMEscan; assay type: binding; details: 1 μM
T15 construct: purchased Eurofins DiscoverX Corporation

[22] = target: NEK7 (Homo sapiens, UniProt Q8TDX7); experiment: KINOMEscan; assay type: binding; details: 1 μM
NEK7, sequence (Q8TDX7 whole entry): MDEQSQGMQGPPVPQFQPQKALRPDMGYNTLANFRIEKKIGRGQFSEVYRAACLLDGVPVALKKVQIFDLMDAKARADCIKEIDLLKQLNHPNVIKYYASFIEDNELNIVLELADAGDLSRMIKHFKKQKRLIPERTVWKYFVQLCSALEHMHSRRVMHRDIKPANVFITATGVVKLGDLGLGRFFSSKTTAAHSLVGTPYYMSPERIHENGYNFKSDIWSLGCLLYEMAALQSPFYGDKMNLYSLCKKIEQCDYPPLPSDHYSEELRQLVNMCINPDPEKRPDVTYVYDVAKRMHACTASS

[23] = target: p38-gamma (Homo sapiens, UniProt P53778); experiment: KINOMEscan; assay type: binding; details: 1 μM
[24] = target: PKMYT1 (Homo sapiens, UniProt Q99640); experiment: KINOMEscan; assay type: binding; details: 1 μM
PKMYT1, sequence (Q99640 whole entry): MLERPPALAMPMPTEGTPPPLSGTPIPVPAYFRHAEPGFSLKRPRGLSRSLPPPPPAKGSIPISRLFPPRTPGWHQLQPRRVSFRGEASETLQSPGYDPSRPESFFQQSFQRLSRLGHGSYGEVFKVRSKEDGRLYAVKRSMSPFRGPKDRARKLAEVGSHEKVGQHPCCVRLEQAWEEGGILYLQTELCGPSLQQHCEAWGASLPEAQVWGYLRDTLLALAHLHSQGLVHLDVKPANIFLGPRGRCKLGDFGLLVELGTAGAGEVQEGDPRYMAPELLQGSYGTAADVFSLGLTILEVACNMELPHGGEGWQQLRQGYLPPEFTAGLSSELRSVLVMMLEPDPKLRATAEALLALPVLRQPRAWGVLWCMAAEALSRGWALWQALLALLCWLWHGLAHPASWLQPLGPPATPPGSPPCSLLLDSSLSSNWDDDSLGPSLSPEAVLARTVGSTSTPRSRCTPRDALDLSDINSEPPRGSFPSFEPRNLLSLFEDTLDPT

[25] = target: PKNB(M.tuberculosis) (Mycobacterium tuberculosis, UniProt P9WI81); experiment: KINOMEscan; assay type: binding; details: 1 μM
PKNB(M.tuberculosis), sequence (P9WI81 whole entry): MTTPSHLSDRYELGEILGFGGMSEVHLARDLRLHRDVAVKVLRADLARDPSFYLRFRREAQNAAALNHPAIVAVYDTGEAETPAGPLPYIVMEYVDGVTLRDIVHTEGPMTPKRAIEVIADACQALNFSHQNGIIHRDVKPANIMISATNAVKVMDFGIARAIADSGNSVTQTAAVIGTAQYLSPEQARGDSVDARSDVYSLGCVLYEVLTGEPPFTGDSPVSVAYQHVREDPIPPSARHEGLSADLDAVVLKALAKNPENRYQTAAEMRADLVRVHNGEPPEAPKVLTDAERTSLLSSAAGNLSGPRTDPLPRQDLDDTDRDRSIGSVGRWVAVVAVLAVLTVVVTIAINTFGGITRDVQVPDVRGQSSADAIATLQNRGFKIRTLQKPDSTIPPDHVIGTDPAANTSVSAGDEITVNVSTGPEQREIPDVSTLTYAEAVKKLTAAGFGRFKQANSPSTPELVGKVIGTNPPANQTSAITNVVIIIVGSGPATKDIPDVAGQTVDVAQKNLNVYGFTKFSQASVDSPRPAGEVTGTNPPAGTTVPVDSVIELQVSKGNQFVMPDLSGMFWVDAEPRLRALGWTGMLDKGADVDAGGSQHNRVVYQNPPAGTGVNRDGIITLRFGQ

[26] = target: PRKD2 (Homo sapiens, UniProt Q9BZL6); experiment: KINOMEscan; assay type: binding; details: 1 μM
[27] = target: RIOK3 (Homo sapiens, UniProt O14730); experiment: KINOMEscan; assay type: binding; details: 1 μM
[28] = target: T16, TAK1 (Homo sapiens, UniProt O43318); experiment: KINOMEscan; assay type: binding; details: 1 μM
T16 construct: purchased Eurofins DiscoverX Corporation
T16 sequence (O43318 whole entry): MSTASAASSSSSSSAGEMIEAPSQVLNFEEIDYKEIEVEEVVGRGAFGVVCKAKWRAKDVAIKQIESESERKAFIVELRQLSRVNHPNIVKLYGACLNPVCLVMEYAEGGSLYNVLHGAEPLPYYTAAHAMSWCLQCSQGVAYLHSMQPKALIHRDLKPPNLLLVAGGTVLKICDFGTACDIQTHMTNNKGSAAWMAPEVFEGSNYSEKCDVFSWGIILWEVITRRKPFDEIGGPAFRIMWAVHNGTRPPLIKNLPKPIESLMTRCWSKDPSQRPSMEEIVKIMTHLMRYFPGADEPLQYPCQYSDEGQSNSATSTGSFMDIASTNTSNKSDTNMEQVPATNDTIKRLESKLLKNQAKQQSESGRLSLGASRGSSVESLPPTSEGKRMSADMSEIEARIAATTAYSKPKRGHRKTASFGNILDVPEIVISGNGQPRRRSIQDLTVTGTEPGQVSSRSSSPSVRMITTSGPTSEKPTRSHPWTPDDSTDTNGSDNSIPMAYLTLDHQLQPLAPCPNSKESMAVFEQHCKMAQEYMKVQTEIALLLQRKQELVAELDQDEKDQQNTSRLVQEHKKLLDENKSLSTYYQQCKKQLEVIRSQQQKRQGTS

[29] = target: ZAP70 (Homo sapiens, UniProt P43403); experiment: KINOMEscan; assay type: binding; details: 1 μM

Compound C=CC(=O)Nc1ccc(OC)c(Nc2cc(-c3[nH]c(CC)nc3-c3cccc(NC(=O)c4cccc5c4NC(=O)c4ccccc4N5)c3)ccn2)c1 [Compound 4] has a Ki [1] of 1.2 ± 0.04 µM, a kinact [1] of 0.003 s⁻¹ and a kinact/KI [1] of 2500 ± 30 M⁻¹ s⁻¹. The Ki [2] was 0.61 ± 0.03 µM, the kinact [2] was 0.00867 s⁻¹ and the kinact/KI [2] was 14100 ± 300 M⁻¹ s⁻¹. The Ki [3] was 1.6 ± 0.1 µM, the kinact [3] was 0.00167 s⁻¹ and the kinact/KI [3] was 1070 ± 40 M⁻¹ s⁻¹. The POC [4] was 97% of control, the POC [5] was 98% of control and the POC [6] was 80% of control. The POC [7] was 96% of control, the POC [8] was 85% of control and the POC [9] was 91% of control. The POC [10] was 100% of control, the POC [11] was 100% of control and the POC [12] was 2.7% of control. The POC [13] was 99% of control, the POC [14] was 100% of control and the POC [15] was 87% of control. The POC [16] was 22% of control, the POC [17] was 100% of control and the POC [18] was 100% of control. For the same compound, the POC [19] was 97% of control, the POC [20] was 31% of control and the POC [21] was 84% of control. The POC [22] was 86% of control, the POC [23] was 100% of control and the POC [24] was 99% of control. For the same compound, the POC [25] was 97% of control, the POC [26] was 62% of control and the POC [27] was 100% of control. For the same compound, the POC [28] was 95% of control and the POC [29] was 97% of control.
